Where two headings read alike, the source gives them in different places.
Tests used:
bladder = experiment: animal or person; details: Rattus norvegicus, po, read-out: Contraction interval
Description: Male SD strain rats (200-300 g) were used as test animals. Each animal was anesthetized by intraperitoneally administering 50 mg/kg Nembutal. The hair on the abdomen, the thigh, and the back of the neck was shaved, followed by disinfection with 70% ethanol. The left femoral artery of the rat was exposed by incising the thigh for the insertion of a catheter into the femoral artery. A catheter filled with physiological saline containing heparin (1000 units/ml) was introduced approximately 2-3 cm into the artery so that its tip resided in the abdominal artery. The distal end of the catheter was exteriorized at the nape of the neck, sealed, and fixed on the skin tightly. A bladder catheter was implanted according to the method of Yaksh, et al., [Am. J. Physiol., vol.251, R1177-1185 (1986)]. The bladder was exposed through a midline abdominal incision. The bladder dome was given a small incision to make a small hole. A catheter filled with physiological saline was placed into the bladder and secured with a silk ligature. The other end of the catheter was exteriorized at the nape of the neck after being passed under the skin using a trocar. The exposed end of the catheter was sealed and fixed on the skin tightly. The abdominal muscles and skin were sutured, and the test animal was recovered from anesthesia.
The rat was weighed 24-48 hours after the operation. Each rat was placed in a Bollman cage (NATSUME SEISAKUSHO), and the test was done under partial restraint. The arterial catheter was connected to a pressure transducer (NIHON KODEN DX-300) used for the measurement of blood pressure. The bladder catheter was connected to a sylinge pump for physiological saline infusion and to a pressure transducer with PE50 tubing and a three-way stop-cock. Intravesical physiological saline infusion (0.05 ml/minute) was started and continued during the test. The changes of blood pressure, heart rate, and intravesical pressure were recorded with a polygraph (NIHON KODEN). The test animal was allowed to equilibration (for ca. 60-120 minutes) until its micturition pattern became constant. At this point, a basal value of each test parameter was recorded, and the rat was compulsorily given a test compound (in 0.3% carboxymethyl cellulose-physiological saline) at a dose of 1 mg/kg (body weight) by oral administration. […] As a control compound, cromakalim was used. The contraction interval, the systemic blood pressure, and the heart rate were measured for 5 hours after the administration of the compound at one-hour intervals and were expressed as the relative values based on the pre-administration values which were regarded as 100.

[1] = system: detrusor muscle (isolated urinary bladder strips); experiment: Relaxation of contraction induced by 50 mmol/l KCl in isolated urinary bladder strips (Test Example 1); set-up: species or system guinea pig (male albino Hartley); details: Cavia porcellus, 0.5 h; KCl 50 mmol/l; cumulative, contact time 30 minutes; 50% relaxant of maximum response
Description: (§1) The activity of Compounds (I) as therapeutic agents for pollakiuria and urinary incontinence is described below. In the following Test Examples 1 and 2, IC50 value was defined as the concentration at which a test compound produces 50% relaxant of maximum response of detrusor muscle.
(§2) Male albino Hartley guinea pigs (350-550 g) were used as test animals. Each animal was exsanguinated to death under sodium pentobarbital anesthesia. The lower abdominal cavity was opened and its bladder was positioned. The connective tissue and the fat tissue around the bladder were removed, and the bladder was washed. After bilateral pelvic nerves on the surface of the abdominal side of the bladder were dissected, the bladder was taken out on the entrance of ureter. The bladder was washed with a Krebs-Henseleit buffer [composition (mM): NaCl 118, KCl 4.7, MgSO4 1.2, KH2 PO4 1.2, CaCl2 2.5, NaHCO3 25, and D-glucose 11.1], and then put on a gauze patch soaked in the buffer in a Petri dish. The dome and the trigone of the bladder were cut away. The back of the bladder was cut vertically in the middle with scissors, and the bladder was put flat on the gauze patch. The mucosa of the bladder was removed. The back of the bladder was cut vertically to get 6 strips which are ca. 2.0 mm wide and ca. 10 mm long.
(§3) Each strip was tied at one end to plastic rod and placed in a 20 ml organ bath containing a Krebs-Henseleit solution which was maintained at 37° C. and bubbled vigorously with a gas mixture of 5% CO2 and 95% O2. The pH of the solution was adjusted to about 7.4. The other end of the strip was tied via silk thread to a force displacement transducer (NIHON KODEN TB-611T). The transducer was connected to a polygraph (NIHON KODEN AP-621G), and the changes in tension were recorded on a recorder (YOKOGAWA type 3066). The polygraph was graduated by 0.5 g/cm.
After the tissue was incubated in the buffer for 15 minutes without preloading, tension was added thereto for about one hour. The preloading tension added was 1.5 g and it was relaxed to about 1 g. The strips were allowed to equilibrate until their contractions became constant and tension was adjusted to 1 g. After this equilibrium period, 50 mmol/l KCl (the whole content in the bath) was added, and the tissue was washed 10 minutes later. KCl was added to the tissue at intervals of 30 minutes, followed by washing 10 minutes later, and KCl was applied repeatedly until the developed tension induced by KCl becomes constant. When the tissue was confirmed to contract constantly by the application of KCl and relax to the steady state after washing, 50 mmol/l KCl was applied again. After the tissue reached the steady state and the base line was obtained, a test compound was applied by the cumulative method (half-logarithmic increment). The contact time at each concentration was 30 minutes. The activity of the compound was expressed as the maximum relaxation rate (%) against the tension induced by the agonist.

[2] = system: detrusor muscle (isolated urinary bladder strips); experiment: Relaxation of rhythmic contraction induced by 15 mmol/l KCl in isolated urinary bladder strips (Test Example 2); set-up: species or system guinea pig (male albino Hartley); details: Cavia porcellus; KCl 15 mmol/l; cumulative, contact time 15-30 minutes; 50% relaxant of maximum response
Description: as §1, §2, §3
Isolated urinary bladder strips were prepared in the same manner as in Test Example 1, and the tension of the preparation was measured. After the tension of the tissue was adjusted to be a steady state at 1 g, 15 mmol/l KCl was applied. After the rhythmic contraction was confirmed to appear by KCl, the tissue was washed. Then, 15 mmol/l KCl was applied again. After the rhythmic contraction induced by KCl became constant, a test compound was applied by the cumulative method (half-logarithmic increment). The contact time at each concentration was 15-30 minutes. The activity of the compound was expressed as the maximum relaxation rate (%) against the tension induced by the agonist.

`CC(O)(C(=O)Nc1cccc2c1C(=O)c1sccc1CS2(=O)=O)C(F)(F)F` (centres unmarked) [Compound 1-1, 5,5-Dioxo-9-(3,3,3-trifluoro-2-hydroxy-2-methylpropanoylamino)-4,10-dihydrothieno[3,2-c][1]benzothiepin-10-one] was tested, and the response vs control in vivo at 1 mg/kg (bladder; 1 h) was 138 ± 15%, the response vs control in vivo at 10 mg/kg (bladder; 1 h) was 124 ± 4% and the response vs control in vivo at 1 mg/kg (bladder; 2 h) was 166 ± 16%. The response vs control in vivo at 10 mg/kg (bladder; 2 h) was 139 ± 9%, the response vs control in vivo at 1 mg/kg (bladder; 3 h) was 170 ± 6% and the response vs control in vivo at 10 mg/kg (bladder; 3 h) was 154 ± 14%. For the same compound, the response vs control in vivo at 1 mg/kg (bladder; 4 h) was 181 ± 16%, the response vs control in vivo at 10 mg/kg (bladder; 4 h) was 176 ± 13% and the response vs control in vivo at 1 mg/kg (bladder; 5 h) was 203 ± 21%. For the same compound, the response vs control in vivo at 10 mg/kg (bladder; 5 h) was 190 ± 15%, the IC50 [1] was over 10 µM and the IC50 [2] was 2.6 µM.
Work on `CC(O)(C(=O)Nc1ccc2c(c1)S(=O)(=O)Cc1ccccc1C2=O)C(F)(F)F` (centres unmarked) [Compound 1-4, 5,5-Dioxo-3-(3,3,3-trifluoro-2-hydroxy-2-methylpropanoylamino)-6,11-dihydrodibenzo[b,e]thiepin-11-one] yielded an IC50 [1] of 4.5 µM and an IC50 [2] of 3.2 µM.
With `CC(O)(C(=O)Nc1cccc2c1C(=O)c1ccsc1CS2(=O)=O)C(F)(F)F` (centres unmarked) [Compound 1-5, 9,9-Dioxo-5-(3,3,3-trifluoro-2-hydroxy-2-methylpropanoylamino)-4,10-dihydrothieno[2,3-c][1]benzothiepin-4-one] the IC50 [1] was 8.7 µM and the IC50 [2] was 4 µM.
`CC(O)(C(=O)Nc1cccc2c1C(=O)c1ccoc1CS2(=O)=O)C(F)(F)F` (centres unmarked) [Compound 1-7, 9,9-Dioxo-5-(3,3,3-trifluoro-2-hydroxy-2-methylpropanoylamino)-4,10-dihydrofuro[2,3-c][1]benzothiepin-4-one] showed a response vs control in vivo at 1 mg/kg (bladder; 1 h) of 116 ± 9%, a response vs control in vivo at 1 mg/kg (bladder; 2 h) of 138 ± 12% and a response vs control in vivo at 1 mg/kg (bladder; 3 h) of 156 ± 17%. For the same compound, the response vs control in vivo at 1 mg/kg (bladder; 4 h) was 155 ± 16%, the response vs control in vivo at 1 mg/kg (bladder; 5 h) was 155 ± 17% and the IC50 [2] was over 10 µM.
Compound `CC(O)(C(=O)Nc1ccc2c(c1)S(=O)(=O)Cc1occc1C2=O)C(F)(F)F` (centres unmarked) [Compound 1-8, 9,9-Dioxo-7-(3,3,3-trifluoro-2-hydroxy-2-methylpropanoylamino)-4,10-dihydrofuro[2,3-c][1]benzothiepin-4-one] has an IC50 [2] of 7.5 µM.
`CC(O)(C(=O)Nc1ccc2c(c1)C(=O)c1sccc1CS2(=O)=O)C(F)(F)F` (centres unmarked) [Compound 1-9, 5,5-Dioxo-8-(3,3,3-trifluoro-2-hydroxy-2-methylpropanoylamino)-4,10-dihydrothieno[3,2-c][1]benzothiepin-10-one] was tested, and the response vs control in vivo at 1 mg/kg (bladder; 1 h) was 129 ± 23%, the response vs control in vivo at 1 mg/kg (bladder; 2 h) was 123 ± 10% and the response vs control in vivo at 1 mg/kg (bladder; 3 h) was 143 ± 12%. For the same compound, the response vs control in vivo at 1 mg/kg (bladder; 4 h) was 135 ± 16%, the response vs control in vivo at 1 mg/kg (bladder; 5 h) was 130 ± 5% and the IC50 [2] was over 10 µM.
With `CC(O)(C(=O)Nc1cccc2c1C(=O)c1cccnc1CS2(=O)=O)C(F)(F)F` (centres unmarked) [Compound 1-14, 10,10-Dioxo-6-(3,3,3-trifluoro-2-hydroxy-2-methylpropanoylamino)-5,11-dihydro[1]benzothiepino[3,4-b]pyridin-5-one] the IC50 [2] was over 10 µM.
For `CC(O)(C(=O)Nc1cccc2c1C(=O)c1cccc(F)c1CS2(=O)=O)C(F)(F)F` (centres unmarked) [Compound 1-19, 5,5-Dioxo-7-fluoro-1-(3,3,3-trifluoro-2-hydroxy-2-methylpropanoylamino)-6,11-dihydrodibenzo[b,e]thiepin-11-one], the response vs control in vivo at 1 mg/kg (bladder; 1 h) was 114 ± 9%, the response vs control in vivo at 1 mg/kg (bladder; 2 h) was 139 ± 7% and the response vs control in vivo at 1 mg/kg (bladder; 3 h) was 136 ± 11%. The response vs control in vivo at 1 mg/kg (bladder; 4 h) was 145 ± 6%, the response vs control in vivo at 1 mg/kg (bladder; 5 h) was 167 ± 15% and the IC50 [2] was 4.3 µM.
`CC(O)(C(=O)Nc1ccc2c(c1)S(=O)(=O)Cc1ccc(F)cc1C2=O)C(F)(F)F` (centres unmarked) [Compound 1-22, 5,5-Dioxo-9-fluoro-3-(3,3,3-trifluoro-2-hydroxy-2-methylpropanoylamino)-6,11-dihydrodibenzo[b,e]thiepin-11-one] showed an IC50 [2] of 6.5 µM.
Compound `COc1ccc2c(c1)CS(=O)(=O)c1cccc(NC(=O)C(C)(O)C(F)(F)F)c1C2=O` (centres unmarked) [Compound 1-24, 5,5-Dioxo-8-methoxy-1-(3,3,3-trifluoro-2-hydroxy-2-methylpropanoylamino)-6,11-dihydrodibenzo[b,e]thiepin-11-one] has a response vs control in vivo at 1 mg/kg (bladder; 1 h) of 140 ± 11%, a response vs control in vivo at 1 mg/kg (bladder; 2 h) of 121 ± 17% and a response vs control in vivo at 1 mg/kg (bladder; 3 h) of 160 ± 19%. It also gave a response vs control in vivo at 1 mg/kg (bladder; 4 h) of 169 ± 25%, a response vs control in vivo at 1 mg/kg (bladder; 5 h) of 169 ± 25% and an IC50 [2] of over 10 µM.
`COc1ccc(NC(=O)C(C)(O)C(F)(F)F)c2c1S(=O)(=O)Cc1ccsc1C2=O` (centres unmarked) [Compound 1-28, 5,5-Dioxo-6-methoxy-9-(3,3,3-trifluoro-2-hydroxy-2-methylpropanoylamino)-4,10-dihydrothieno[3,2-c][1]benzothiepin-10-one] showed a response vs control in vivo at 1 mg/kg (bladder; 1 h) of 127 ± 10%, a response vs control in vivo at 1 mg/kg (bladder; 2 h) of 139 ± 7% and a response vs control in vivo at 1 mg/kg (bladder; 3 h) of 133 ± 6%. The response vs control in vivo at 1 mg/kg (bladder; 4 h) was 140 ± 3%, the response vs control in vivo at 1 mg/kg (bladder; 5 h) was 145 ± 3% and the IC50 [2] was over 10 µM.
For `Cc1ccc(NC(=O)C(C)(O)C(F)(F)F)c2c1S(=O)(=O)Cc1ccsc1C2=O` (centres unmarked) [Compound 1-29, 5,5-Dioxo-6-methyl-9-(3,3,3-trifluoro-2-hydroxy-2-methylpropanoylamino)-4,10-dihydrothieno[3,2-c][1]benzothiepin-10-one], the IC50 [2] was 2.4 µM.
With `CC(O)(C(=O)Nc1ccc(Cl)c2c1C(=O)c1sccc1CS2(=O)=O)C(F)(F)F` (centres unmarked) [Compound 1-33, 6-Chloro-5,5-dioxo-9-(3,3,3-trifluoro-2-hydroxy-2-methylpropanoylamino)-4,10-dihydrothieno[3,2-c][1]benzothiepin-10-one] the response vs control in vivo at 1 mg/kg (bladder; 1 h) was 124 ± 15%, the response vs control in vivo at 1 mg/kg (bladder; 2 h) was 137 ± 15% and the response vs control in vivo at 1 mg/kg (bladder; 3 h) was 137 ± 4%. It also gave a response vs control in vivo at 1 mg/kg (bladder; 4 h) of 142 ± 10%, a response vs control in vivo at 1 mg/kg (bladder; 5 h) of 148 ± 21% and an IC50 [2] of 0.7 µM.
Compound `CC(O)(C(=O)Nc1ccc(F)c2c1C(=O)c1sccc1CS2(=O)=O)C(F)(F)F` (centres unmarked) [Compound 1-35, 5,5-Dioxo-6-fluoro-9-(3,3,3-trifluoro-2-hydroxy-2-methylpropanoylamino)-4,10-dihydrothieno[3,2-c][1]benzothiepin-10-one] has a response vs control in vivo at 1 mg/kg (bladder; 1 h) of 115 ± 2%, a response vs control in vivo at 1 mg/kg (bladder; 2 h) of 133 ± 12% and a response vs control in vivo at 1 mg/kg (bladder; 3 h) of 131 ± 15%. It also gave a response vs control in vivo at 1 mg/kg (bladder; 4 h) of 152 ± 4%, a response vs control in vivo at 1 mg/kg (bladder; 5 h) of 148 ± 3% and an IC50 [2] of 2.5 µM.
Work on `O=C1c2sccc2CS(=O)(=O)c2cccc(NC(=O)C3CCCO3)c21` (centres unmarked) [Compound 3-9, 5,5-Dioxo-9-(2-tetrahydrofuroylamino)-4,10-dihydrothieno[3,2-c][1]benzothiepin-10-one] yielded a response vs control in vivo at 1 mg/kg (bladder; 1 h) of 122 ± 7%, a response vs control in vivo at 1 mg/kg (bladder; 2 h) of 128 ± 16% and a response vs control in vivo at 1 mg/kg (bladder; 3 h) of 129 ± 18%. The response vs control in vivo at 1 mg/kg (bladder; 4 h) was 150 ± 19%, the response vs control in vivo at 1 mg/kg (bladder; 5 h) was 160 ± 21% and the IC50 [2] was over 10 µM.
`CC(C)(O)C(=O)Nc1cccc2c1C(=O)c1sccc1CS2(=O)=O` [Compound 3-12, 5,5-Dioxo-9-(2-hydroxy-2-methylpropanoylamino)-4,10-dihydrothieno[3,2-c][1]benzothiepin-10-one] was tested, and the response vs control in vivo at 1 mg/kg (bladder; 1 h) was 118 ± 18%, the response vs control in vivo at 1 mg/kg (bladder; 2 h) was 153 ± 20% and the response vs control in vivo at 1 mg/kg (bladder; 3 h) was 152 ± 17%. It also gave a response vs control in vivo at 1 mg/kg (bladder; 4 h) of 161 ± 26%, a response vs control in vivo at 1 mg/kg (bladder; 5 h) of 165 ± 19% and an IC50 [2] of over 10 µM.
In the case of `CCC(C)(O)C(=O)Nc1cccc2c1C(=O)c1sccc1CS2(=O)=O` (centres unmarked) [Compound 3-14, 5,5-Dioxo-9-(2-hydroxy-2-methylbutanoylamino)-4,10-dihydrothieno[3,2-c][1]benzothiepin-10-one], the IC50 [2] is reported as over 10 µM.
`CC1(C)Oc2ccc(C#N)cc2C(N2CCCC2=O)C1O` (centres unmarked) [Cromakalim, cromakalim, reference compound] gave a response vs control in vivo at 1 mg/kg (bladder; 1 h) of 124%, a response vs control in vivo at 1 mg/kg (bladder; 2 h) of 133% and a response vs control in vivo at 1 mg/kg (bladder; 3 h) of 142%. The response vs control in vivo at 1 mg/kg (bladder; 4 h) was 133% and the response vs control in vivo at 1 mg/kg (bladder; 5 h) was 133%.

— patent US6211227A, “Tricyclic compounds” (Kyowa Hakko Kogyo Co., Ltd., priority 1997, dated 2001)
